Measurements as given in patent US8426370B2, “Diaryl hepatonoid-based compounds and use thereof” (priority 2008, dated 2013).
Where two headings read alike, the source gives them in different places.

Tests used:
[1] = tested on: avian influenza virus KBNP-0028 (KCTC 10866BP); assay type: cell-based, A/chicken/Korea/SNU0028/2000(H9N2)
[2] = tested on: CEF (chicken embryo fibroblasts)

SMILES: O=C(CCc1ccc(O)c(O)c1)C[C@H](CCc1ccc(O)c(O)c1)OC1OCC(O)C(O)C1OC(=O)/C=C/c1ccc(O)cc1 (stereo partly drawn) [12B-AJ-17A-1, (5S)-1,7-bis(3,4-dihydroxyphenyl)-3-heptanone-5-O-(2-coumaroyl)-β-D-xylopyranoside]
- antiviral activity (in words) [1]: had antiviral activity
- Number of wells wherein hemagglutination occurs (among 6 wells) ([1]; 12.5 μg/mL): 3
- Number of wells wherein hemagglutination occurs (among 6 wells) ([1]; 25 μg/mL): 3
- Number of wells wherein hemagglutination occurs (among 6 wells) ([1]; 50 μg/mL): 3
- Number of wells wherein hemagglutination occurs (among 6 wells) ([1]; 100 μg/mL): 3
- cytotoxicity (in words) [2]: no cytotoxicity
